From ChEMBL document CHEMBL1201862, “PubChem BioAssay data set” (2004)
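Five concentrations, 48 hours, 96-well plates. GI50 = concentration required for 50% inhibition of growth.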 Activity calls are given as the source filed them. Cut-off read from the data, not from the text of the source: active = GI50 up to about 1.1 µM and inactive = higher.

Tests used:
Assay in all cases: NCI tumour cell line growth inhibition, 48 h
[1] = test system: ACHN
[2] = test system: CAKI-1
[3] = test system: DU-145
[4] = test system: EKVX
[5] = test system: HCT-15
[6] = test system: HOP-62
[7] = test system: HOP-92
[8] = test system: M14
[9] = test system: MDA-N
[10] = test system: NCI-H23
[11] = test system: NCI/ADR-RES
[12] = test system: OVCAR-3
[13] = test system: OVCAR-4
[14] = test system: OVCAR-8
[15] = test system: PC-3
[16] = test system: RXF 393
[17] = test system: SF-295
[18] = test system: SNB-75
[19] = test system: SW-620
[20] = test system: UACC-62

| Compound | GI50 [1] | GI50 [2] | GI50 [3] | GI50 [4] | GI50 [5] | GI50 [6] | GI50 [7] | GI50 [8] | GI50 [9] | GI50 [10] | GI50 [11] | GI50 [12] | GI50 [13] | GI50 [14] | GI50 [15] | GI50 [16] | GI50 [17] | GI50 [18] | GI50 [19] | GI50 [20] |
| --- | --- | --- | --- | --- | --- | --- | --- | --- | --- | --- | --- | --- | --- | --- | --- | --- | --- | --- | --- | --- |
| CN(C)c1cccc(F)c1C(=O)NC(=O)Nc1ccc(Cl)cc1 | 4.79 µM (inactive) | 3.78 µM (inactive) | 4.03 µM (inactive) | 4.29 µM (inactive) | 0.579 µM | 5.2 µM (inactive) | 27.4 µM (inactive) | 1.93 µM (inactive) | 0.142 µM (active) | 6.34 µM (inactive) | 3.21 µM (inactive) | 2.09 µM (inactive) | > 43 µM (inactive) | 5.19 µM (inactive) | 2.83 µM (inactive) | 3.67 µM (inactive) | 1.55 µM (inactive) | 2.4 µM (inactive) | 1.24 µM (inactive) | 2.38 µM (inactive) |
| FC(F)(F)c1cc(Cl)cnc1N/N=C(/c1ccccc1)c1ccccn1 | 2.92 µM (inactive) | 3.37 µM (inactive) | 4.46 µM (inactive) | 1.03 µM (active) | 0.74 µM | 3.98 µM (inactive) | 1.81 µM (inactive) | 0.719 µM (active) | 17.8 µM (inactive) | 2.55 µM (inactive) | 2.34 µM (inactive) | 1.82 µM (inactive) | 6.67 µM (inactive) | 1.8 µM (inactive) | 3.54 µM (inactive) | 9.66 µM (inactive) | 2.16 µM (inactive) | 0.298 µM (active) | 3.85 µM (inactive) | 3.27 µM (inactive) |
| C[C@]12CC/C(=N\OCCN3CCCCC3)C=C1CCC1C2CC[C@@]2(C)C1CC[C@]2(C)O (some centres not stated) | 11.4 µM (inactive) | 6.75 µM (inactive) | 13.2 µM (inactive) | 16.2 µM (inactive) | 5 µM | 15.2 µM (inactive) | 8.41 µM (inactive) | 14.2 µM (inactive) | 3.32 µM (inactive) | 13.4 µM (inactive) | 5.27 µM (inactive) | 17 µM (inactive) | 19.8 µM (inactive) | 11.2 µM (inactive) | 10.8 µM (inactive) | 16.2 µM (inactive) | 3.5 µM (inactive) | 7.35 µM (inactive) | 5.65 µM (inactive) | 9.86 µM (inactive) |
| COc1c(O)c(O)c2c(c1O)C(=O)c1cc(C)cc(O)c1C2=O | 40.3 µM (inactive) | 37.9 µM (inactive) | 77.1 µM (inactive) | 22.4 µM (inactive) | 14.1 µM | 56.5 µM (inactive) | 92 µM (inactive) | 22.8 µM (inactive) | 53 µM (inactive) | 29.2 µM (inactive) | 16.7 µM (inactive) | 26.4 µM (inactive) | 14.4 µM (inactive) | 20.1 µM (inactive) | 31.1 µM (inactive) | > 70.8 µM (inactive) | 21.9 µM (inactive) | 2.97 µM (inactive) | 40 µM (inactive) | 15.3 µM (inactive) |
| COC1C=C(NCC2(CO)CCC2)N=C(N)N1 (configuration not stated) | – | > 100 µM (inactive) | > 100 µM (inactive) | > 100 µM (inactive) | > 100 µM | > 100 µM (inactive) | > 100 µM (inactive) | > 100 µM (inactive) | > 100 µM (inactive) | 24.8 µM (inactive) | > 100 µM (inactive) | > 100 µM (inactive) | > 100 µM (inactive) | > 100 µM (inactive) | > 100 µM (inactive) | > 100 µM (inactive) | > 100 µM (inactive) | > 100 µM (inactive) | > 100 µM (inactive) | > 100 µM (inactive) |
| O=C([O-])C[n+]1ccccc1.c1ccncc1 | > 100 µM (inactive) | > 100 µM (inactive) | > 100 µM (inactive) | > 100 µM (inactive) | > 100 µM | > 100 µM (inactive) | > 100 µM (inactive) | > 100 µM (inactive) | > 100 µM (inactive) | > 100 µM (inactive) | > 100 µM (inactive) | > 100 µM (inactive) | > 100 µM (inactive) | > 100 µM (inactive) | > 100 µM (inactive) | > 100 µM (inactive) | > 100 µM (inactive) | > 100 µM (inactive) | > 100 µM (inactive) | > 100 µM (inactive) |
| O=C1C2Cc3c(n(C(=O)c4ccccc4)c4ccccc34)CC2C(=O)N1c1ccc(Nc2ccc(N3C(=O)C4Cc5c(n(C(=O)c6ccccc6)c6ccccc56)CC4C3=O)cc2)cc1 (configuration not stated) | > 100 µM (inactive) | > 100 µM (inactive) | > 100 µM (inactive) | > 100 µM (inactive) | > 100 µM | > 100 µM (inactive) | 46 µM (inactive) | 30.9 µM (inactive) | > 100 µM (inactive) | > 100 µM (inactive) | > 100 µM (inactive) | > 100 µM (inactive) | > 100 µM (inactive) | > 100 µM (inactive) | > 100 µM (inactive) | > 100 µM (inactive) | > 100 µM (inactive) | > 100 µM (inactive) | – | 61 µM (inactive) |
| Cn1c2c3c(F)c(F)ccc3nc-2cc2ccccc21 | 0.583 µM (active) | 2.39 µM (inactive) | 1.34 µM (inactive) | 12.4 µM (inactive) | 1.49 µM | 1.35 µM (inactive) | 4.76 µM (inactive) | 2.11 µM (inactive) | 3.64 µM (inactive) | 1.4 µM (inactive) | 1.49 µM (inactive) | 2.33 µM (inactive) | 10.1 µM (inactive) | 1.74 µM (inactive) | 2.85 µM (inactive) | 4.05 µM (inactive) | 1.12 µM (active) | 0.805 µM (active) | 1.49 µM (inactive) | 3.44 µM (inactive) |
| COc1ccc(NC(=O)CC(=O)NN)cc1 | > 100 µM (inactive) | > 100 µM (inactive) | > 100 µM (inactive) | > 100 µM (inactive) | > 100 µM | > 100 µM (inactive) | 64 µM (inactive) | – | > 100 µM (inactive) | > 100 µM (inactive) | > 100 µM (inactive) | > 100 µM (inactive) | > 100 µM (inactive) | > 100 µM (inactive) | > 100 µM (inactive) | > 100 µM (inactive) | > 100 µM (inactive) | > 100 µM (inactive) | > 100 µM (inactive) | > 100 µM (inactive) |
| CS(=O)(=O)OC1CCN(C2(c3cccc(O)c3)CCCCC2)CC1 | > 100 µM (inactive) | > 100 µM (inactive) | 82.6 µM (inactive) | 92.7 µM (inactive) | 79.1 µM | 36.1 µM (inactive) | 51.3 µM (inactive) | 43 µM (inactive) | 30.5 µM (inactive) | 46.5 µM (inactive) | 48.1 µM (inactive) | > 100 µM (inactive) | 43 µM (inactive) | 57.7 µM (inactive) | 33.6 µM (inactive) | 64.6 µM (inactive) | 36 µM (inactive) | > 100 µM (inactive) | 29.9 µM (inactive) | 88.5 µM (inactive) |
| O=P12N(CCN1c1ccccc1)CCN2c1ccccc1 | > 100 µM (inactive) | > 100 µM (inactive) | > 100 µM (inactive) | > 100 µM (inactive) | > 100 µM | > 100 µM (inactive) | 80.7 µM (inactive) | 66.8 µM (inactive) | > 100 µM (inactive) | > 100 µM (inactive) | > 100 µM (inactive) | > 100 µM (inactive) | > 100 µM (inactive) | > 100 µM (inactive) | > 100 µM (inactive) | > 100 µM (inactive) | > 100 µM (inactive) | 63.7 µM (inactive) | > 100 µM (inactive) | > 100 µM (inactive) |
| CN(C)CC1CCCc2ccccc2C1=O (configuration not stated) | 1.75 µM (inactive) | 1.93 µM (inactive) | 6.1 µM (inactive) | 1.85 µM (inactive) | 1.79 µM | 16.6 µM (inactive) | 16 µM (inactive) | 1.85 µM (inactive) | 1.58 µM (inactive) | 6.41 µM (inactive) | 3.32 µM (inactive) | 1.82 µM (inactive) | 0.839 µM (active) | 2.13 µM (inactive) | 1.57 µM (inactive) | 6.55 µM (inactive) | 17.3 µM (inactive) | 41.8 µM (inactive) | 0.54 µM (active) | 2.31 µM (inactive) |
| CCN(CC)CCSc1nc2c(c(=N)n1-c1ccccc1)c(=S)n(-c1ccccc1)c(=S)n2-c1ccccc1 | 1.74 µM (inactive) | 1.5 µM (inactive) | 1.67 µM (inactive) | 2.54 µM (inactive) | 1.77 µM | 2.85 µM (inactive) | 1.41 µM (inactive) | 2.16 µM (inactive) | 2.36 µM (inactive) | 3.69 µM (inactive) | 5.36 µM (inactive) | 1.64 µM (inactive) | 3.47 µM (inactive) | 1.71 µM (inactive) | 1.8 µM (inactive) | 1.36 µM (inactive) | 12.8 µM (inactive) | 2.19 µM (inactive) | 1.67 µM (inactive) | 1.71 µM (inactive) |
| Nc1c(S(=O)(=O)O)cc(Nc2cccc(S(=O)(=O)/C=C/S(=O)(=O)O)c2)c2c1C(=O)c1ccccc1C2=O | > 100 µM (inactive) | > 100 µM (inactive) | > 100 µM (inactive) | > 100 µM (inactive) | > 100 µM | > 100 µM (inactive) | > 100 µM (inactive) | > 100 µM (inactive) | > 100 µM (inactive) | > 100 µM (inactive) | > 100 µM (inactive) | > 100 µM (inactive) | > 100 µM (inactive) | > 100 µM (inactive) | > 100 µM (inactive) | 14.2 µM (inactive) | > 100 µM (inactive) | 34.7 µM (inactive) | > 100 µM (inactive) | > 100 µM (inactive) |
